Measured values taken from US20070049593A1 (priority 2004, published 2007).
Like-named read-outs stand apart in the source and are kept apart here.

Molecular target: T1, HCV polymerase (Hepatitis C virus genotype 1b, UniProt P26663)
T1 construct: a region encoding NS5B (J Virol 1991 March, 65(3), 1105-13, 544 amino acids after deletion of 47 amino acids on the C-terminal); 6xHis (C); made in house; host or cells: Escherichia coli
Assay: biochemical
Parameters: species or system HCV BK strain
Summary of the method: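 His-tagged NS5B (BK strain, 47-aa C-terminal deletion, E. coli-expressed) at 0.5 μg/ml copied 5 μg/ml run-off RNA bearing the HCV 3′ UTR with 2 μM UTP plus [3H]UTP, 50 μM ATP/GTP, in pH 7.5 Tris with 5 mM MgCl2, 25 °C, 90 min. TCA-precipitated RNA was counted and IC50 calculated.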

T1 sequence (P26663 2420-2963): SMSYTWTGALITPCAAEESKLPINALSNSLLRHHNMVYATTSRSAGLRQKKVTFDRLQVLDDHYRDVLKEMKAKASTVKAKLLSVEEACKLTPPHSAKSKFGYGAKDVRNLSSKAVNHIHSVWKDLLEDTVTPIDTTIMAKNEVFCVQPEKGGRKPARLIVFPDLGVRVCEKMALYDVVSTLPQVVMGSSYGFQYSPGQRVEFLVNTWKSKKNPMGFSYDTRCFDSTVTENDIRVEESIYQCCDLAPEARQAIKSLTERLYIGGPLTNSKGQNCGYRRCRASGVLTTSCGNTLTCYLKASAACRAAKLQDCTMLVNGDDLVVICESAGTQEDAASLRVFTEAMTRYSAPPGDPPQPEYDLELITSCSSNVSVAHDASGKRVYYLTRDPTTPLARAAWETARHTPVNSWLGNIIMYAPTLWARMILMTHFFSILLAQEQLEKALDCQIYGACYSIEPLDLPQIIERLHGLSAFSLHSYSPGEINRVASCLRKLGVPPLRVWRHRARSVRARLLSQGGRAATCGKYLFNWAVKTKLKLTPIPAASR

SMILES | IC50 | IC50 (25° C., 90 min, [5,6-3H]UTP incorporation into RNA, read-out: HCV polymerase inhibitory activity IC50)
CNC(=O)[C@H](Cc1ccc(NC(=O)OC)cc1)NC(=O)c1ccc2c(C3CCCCC3)c3n(c2c1)CCOc1cc(OC)ccc1-3 [Example 2-384, methyl (4-{(S)-2-[(12-cyclohexyl-3-methoxy-6,7-dihydro-5-oxa-7a-azadibenzo[a,e]azulene-9-carbonyl)amino]-2-(methylcarbamoyl)ethyl}phenyl)carbamate] | < 100 nM | –
COc1ccc2c(c1)OCCn1c-2c(C2CCCCC2)c2ccc(C(=O)N[C@@H](Cc3c[nH]c4ccc(O)cc34)c3csc(C)n3)cc21 [Example 2-385, [(S)-2-(5-hydroxy-1H-indol-3-yl)-1-(2-methylthiazol-4-yl)ethyl]-12-cyclohexyl-3-methoxy-6,7-dihydro-5-oxa-7a-azadibenzo[a,e]azulene-9-carboxamide] | – | < 100 nM
COc1ccc2c(c1)OCCn1c-2c(C2CCCCC2)c2ccc(C(=O)NC(C)(C)c3nc4cc(C(=O)N5CCC(O)CC5)ccc4[nH]3)cc21 [Example 2-386, N-{1-[5-(4-hydroxypiperidine-1-carbonyl)-1H-benzimidazol-2-yl]-1-methylethyl}-12-cyclohexyl-3-methoxy-6,7-dihydro-5-oxa-7a-azadibenzo[a,e]azulene-9-carboxamide] | < 100 nM | –
COc1ccc2c(c1)OCCn1c-2c(C2CCCCC2)c2ccc(C(=O)N[C@@H](Cc3ccc(O)cc3)C(=O)NCCO)cc21 [Example 2-387, N—[(S)-1-(2-hydroxyethylcarbamoyl)-2-(4-hydroxyphenyl)ethyl]-12-cyclohexyl-3-methoxy-6,7-dihydro-5-oxa-7a-azadibenzo[a,e]azulene-9-carboxamide] | < 100 nM | –
COc1ccc2c(c1)OCCn1c-2c(C2CCCCC2)c2ccc(C(=O)N[C@@H](Cc3ccc(O)cc3)c3nc(C)no3)cc21 [Example 2-388, N—[(S)-2-(4-hydroxyphenyl)-1-(3-methyl-1,2,4-oxadiazol-5-yl)ethyl]-12-cyclohexyl-3-methoxy-6,7-dihydro-5-oxa-7a-azadibenzo[a,e]azulene-9-carboxamide] | < 100 nM | –
COc1ccc2c(c1)OCCn1c-2c(C2CCCCC2)c2ccc(C(=O)N[C@@H](Cc3ccc(O)cc3)C(=O)NCCN(C)C)cc21 [Example 2-389, N—[(S)-1-(2-dimethylaminoethylcarbamoyl)-2-(4-hydroxyphenyl)ethyl]-12-cyclohexyl-3-methoxy-6,7-dihydro-5-oxa-7a-azadibenzo[a,e]azulene-9-carboxamide] | < 100 nM | –
COc1ccc2c(c1)OCCn1c-2c(C2CCCCC2)c2ccc(C(=O)NC(C)(C)c3nc4cc(C(=O)NCCO)ccc4[nH]3)cc21 [Example 2-390, N-{1-[5-(2-hydroxyethylcarbamoyl)-1H-benzimidazol-2-yl]-1-methylethyl}-12-cyclohexyl-3-methoxy-6,7-dihydro-5-oxa-7a-azadibenzo[a,e]azulene-9-carboxamide] | < 100 nM | –
COC(=O)[C@H](Cc1ccc(NC(=O)N(C)C)cc1)NC(=O)c1ccc2c(C3CCCCC3)c3n(c2c1)CCOc1cc(OC)ccc1-3 [Example 2-391, methyl (S)-2-[(12-cyclohexyl-3-methoxy-6,7-dihydro-5-oxa-7a-azadibenzo[a,e]azulene-9-carbonyl)amino]-3-[4-(3,3-dimethylureido)phenyl]propionate] | < 100 nM | –
COC(=O)[C@H](Cc1ccc(OCCCO)cc1)NC(=O)c1ccc2c(C3CCCCC3)c3n(c2c1)CCOc1cc(OC)ccc1-3 [Example 2-392, methyl (S)-2-[(12-cyclohexyl-3-methoxy-6,7-dihydro-5-oxa-7a-azadibenzo[a,e]azulene-9-carbonyl)amino]-3-[4-(3-hydroxypropoxy)phenyl]propionate] | < 100 nM | –
COC(=O)C(Cc1ccc(CO)cc1)NC(=O)c1ccc2c(C3CCCCC3)c3n(c2c1)CCOc1cc(OC)ccc1-3 (stereo not drawn) [Example 2-393, methyl 2-[(12-cyclohexyl-3-methoxy-6,7-dihydro-5-oxa-7a-azadibenzo[a,e]azulene-9-carbonyl)amino]-3-(4-hydroxymethylphenyl)propionate] | < 100 nM | –
COc1ccc2c(c1)OCCn1c-2c(C2CCCCC2)c2ccc(C(=O)NC(C)(C)c3nc4cccnc4[nH]3)cc21 [Example 2-394, N-[1-(3H-imidazo[4,5-b]pyridin-2-yl)-1-methylethyl]-12-cyclohexyl-3-methoxy-6,7-dihydro-5-oxa-7a-azadibenzo[a,e]azulene-9-carboxamide] | < 100 nM | –
COc1ccc2c(c1)OCCn1c-2c(C2CCCCC2)c2ccc(C(=O)NC(C)(C)c3nc4cc(C(=O)O)ccc4n3CCN3CCOCC3)cc21 [Example 2-395, 2-{1-[(12-cyclohexyl-3-methoxy-6,7-dihydro-5-oxa-7a-azadibenzo[a,e]azulene-9-carbonyl)amino]-1-methylethyl]-1-[2-(morpholin-4-yl)ethyl]-1H-benzimidazole-5-carboxylic acid] | < 100 nM | –
CNC(=O)c1ccc2[nH]c(C(C)(C)NC(=O)c3ccc4c(C5CCCCC5)c5n(c4c3)CCOc3cc(OC)ccc3-5)nc2c1 [Example 2-396, N-[1-methyl-1-(5-methylcarbamoyl-1H-benzimidazol-2-yl)ethyl]-12-cyclohexyl-3-methoxy-6,7-dihydro-5-oxa-7a-azadibenzo[a,e]azulene-9-carboxamide] | < 100 nM | –
COc1ccc2c(c1)OCCn1c-2c(C2CCCCC2)c2ccc(C(=O)NC3(C(=O)Nc4ccc(C(=O)O)cc4)CCN(C)CC3)cc21 [Example 2-397, 4-([4-[(12-cyclohexyl-3-methoxy-6,7-dihydro-5-oxa-7a-azadibenzo[a,e]azulene-9-carbonyl)amino]-1-methylpiperidine-4-carbonyl)amino)benzoic acid] | < 100 nM | –
CCOC(=O)c1ccc(-c2cnc(C(C)(C)NC(=O)c3ccc4c(C5CCCCC5)c5n(c4c3)CCOc3cc(OC)ccc3-5)[nH]2)cc1 [Example 2-398, ethyl 4-(2-{1-[(12-cyclohexyl-3-methoxy-6,7-dihydro-5-oxa-7a-azadibenzo[a,e]azulene-9-carbonyl)amino]-1-methylethyl}-3H-imidazol-4-yl)benzoate] | < 100 nM | –
COc1ccc2c(c1)OCCn1c-2c(C2CCCCC2)c2ccc(C(=O)NC(C)(C)c3ncc(-c4ccc(C(=O)O)cc4)[nH]3)cc21 [Example 2-399, 4-(2-{1-[(12-cyclohexyl-3-methoxy-6,7-dihydro-5-oxa-7a-azadibenzo[a,e]azulene-9-carbonyl)amino]-1-methylethyl}-3H-imidazol-4-yl)benzoic acid] | < 100 nM | –
COc1ccc2c(c1)OCCn1c-2c(C2CCCCC2)c2ccc(C(=O)NC3(C(=O)O)CCOCC3)cc21 [Example 2-400, 4-[(12-cyclohexyl-3-methoxy-6,7-dihydro-5-oxa-7a-azadibenzo[a,e]azulene-9-carbonyl)amino]tetrahydropyran-4-carboxylic acid] | < 100 nM | –
COc1ccc2c(c1)OCCn1c-2c(C2CCCCC2)c2ccc(C(=O)NC3(C(=O)Nc4ccc(/C=C/C(=O)O)cc4)CCOCC3)cc21 [Example 2-401, (E)-3-[4-({4-[(12-cyclohexyl-3-methoxy-6,7-dihydro-5-oxa-7a-azadibenzo[a,e]azulene-9-carbonyl)amino]tetrahydropyran-4-carbonyl}amino)phenyl]acrylic acid] | < 100 nM | –
COc1ccc2c(c1)OCCn1c-2c(C2CCCCC2)c2ccc(C(=O)NC3(C(=O)Nc4ccc(C(=O)O)cc4)CCOCC3)cc21 [Example 2-402, 4-({4-[(12-cyclohexyl-3-methoxy-6,7-dihydro-5-oxa-7a-azadibenzo[a,e]azulene-9-carbonyl)amino]tetrahydropyran-4-carbonyl}amino)benzoic acid] | < 100 nM | –
COc1ccc2c(c1)OCCn1c-2c(C2CCCCC2)c2ccc(C(=O)NC(C)(C)c3nc4cc(C(=O)O)ccc4c(=O)[nH]3)cc21 [Example 2-403, 2-{1-[(12-cyclohexyl-3-methoxy-6,7-dihydro-5-oxa-7a-azadibenzo[a,e]azulene-9-carbonyl)amino]-1-methylethyl}-4-oxo-3,4-dihydroquinazoline-7-carboxylic acid] | < 100 nM | –
COc1ccc2c(c1)OCCn1c-2c(C2CCCCC2)c2ccc(C(=O)NC(C)(C)c3nc(N(C)C)c4ccc(C(=O)O)cc4n3)cc21 [Example 2-404, 2-{1-[(12-cyclohexyl-3-methoxy-6,7-dihydro-5-oxa-7a-azadibenzo[a,e]azulene-9-carbonyl)amino]-1-methylethyl]-4-dimethylaminoquinazoline-7-carboxylic acid] | < 100 nM | –
COc1ccc2c(c1)OCCn1c-2c(C2CCCCC2)c2ccc(C(=O)NC(C)(C)c3nc4cc(CO)ccc4[nH]3)cc21 [Example 2-405, N-[1-(5-hydroxymethyl-1H-benzimidazol-2-yl)-1-methylethyl]-12-cyclohexyl-3-methoxy-6,7-dihydro-5-oxa-7a-azadibenzo[a,e]azulene-9-carboxamide] | < 100 nM | –
COc1ccc2c(c1)OCCn1c-2c(C2CCCCC2)c2ccc(C(=O)NC3(C(=O)Nc4ccc(C(C)(C)C(=O)O)cc4)CCC3)cc21 [Example 2-406, 2-[4-({1-[(12-cyclohexyl-3-methoxy-6,7-dihydro-5-oxa-7a-azadibenzo[a,e]azulene-9-carbonyl)amino]cyclobutanecarbonyl}amino)phenyl]-2-methylpropionic acid] | < 100 nM | –
COC(=O)Nc1ccc(C[C@H](NC(=O)c2ccc3c(C4CCCCC4)c4n(c3c2)CCOc2cc(OC)ccc2-4)c2nc(C)no2)cc1 [Example 2-407, methyl {4-[(S)-2-[(12-cyclohexyl-3-methoxy-6,7-dihydro-5-oxa-7a-azadibenzo[a,e]azulene-9-carbonyl)amino]-2-(3-methyl-1,2,4-oxadiazol-5-yl)ethyl]phenyl}carbamate] | < 100 nM | –
